The values below come from US20190298661A1, “Transdermal Delivery of Phenethylamine Monoamine Releasers” (priority 2016, published 2019).

Where two headings read alike, the source gives them in different places. A value given as a limit tells only on which side of the number the result lay.

Series [1] can be described thus: In vitro skin permeation study, vertical static Franz-type diffusion cells, 24 h. It is filed as in vitro ADME, human. The settings on record: for average amount permeated across dermatomed human skin: liquid base form; for flux / flux with 10% lauric acid versus propylene glycol alone: base 20 mg/mL; for calculated passive flux over 24 hours: base form, 40 mg/ml; for percent permeated through the skin within 24 hours: base; for flux enhancement compared to propylene glycol only group: base 40 mg/mL. The protocol:
To test this prediction, skin permeation studies were conducted with 4-benzylpiperidine, phenmetrazine, and PAL-353 (3-flouroamphetamine) Based on the required dosing and technical capacity of patch technology, one objective was to develop a 24-hour patch. As such, the skin permeation studies were performed for 24 hours using vertical static Franz-type diffusion cells.
The recirculating water bath system was maintained at 37° C. to bring the skin surface temperature to 32° C. Each Franz cell comprised of a donor compartment containing the drug and a receiver compartment containing 1×PBS at pH 7.4 to ensure a diffusion gradient, with human dermatomed skin (described below) clamped between the two compartments. Permeation was followed by detection of drug in the receiver compartment using an alliance HPLC Waters 2695 Separations Module attached to a Waters UV detector system. A prodigy 5 u ODS (2) 150×4.60 mm 5 micron column with mobile phase of acetonitrile and water (0.05% TFA) at a flow rate of 1 mL/min and an injection volume 20 μL, with a retention time of 5.5 min, was detected at 259 nm wavelength. The same permeation and HPLC protocol was followed with 6 Franz cells (n=6) for each condition.
PAL-353 (3-flouroamphetamine) (10 mg/mL in a vehicle suitable for the enhancement technique being used) was placed in the donor compartment of the Franz cell.
The permeation of phenmetrazine and PAL-353 (3-flouroamphetamine) (3-FA) through dermatomed human cadaver skin was further studied using static Franz diffusion cells. Permeated drugs were quantified using a validated HPLC-UV method. The passive permeation of phenmetrazine and 3-FA was evaluated at the concentrations of 10 (phenmetrazine fumarate), 20 (phenmetrazine and 3-FA bases) and 40 (phenmetrazine and 3-FA bases) mg/mL in propylene glycol (PG). Further, the enhancement effect of oleic acid (5% w/w), oleyl alcohol (5% and 10% w/w) and lauric acid (10% w/w) on the permeation of phenmetrazine and 3-FA bases at 20 and 40 mg/mL was investigated.
Chemical permeation enhancers belonging to fatty acid or fatty alcohol group, oleic acid, oleyl alcohol and lauric acid were incorporated to improve the permeation rate of phenmetrazine (40 mg/mL) and 3-flouroamphetamine (20 mg/mL).
Iontophoretic delivery of PAL-353 across dermatomed human skin was also investigated. The donor chamber was filled with 500 μL of PAL-353 solution (10 mg/ml; 54% of saturation solubility) in 10 mM PBS, pH 7.4 containing 25 mM sodium chloride (n=4). The pH of the donor formulation as measured using glass electrode was around 4.0. Anodal iontophoresis was conducted where silver (anode) and silver chloride electrodes (cathode) were placed in the donor chamber and sampling port of the receptor chamber, respectively. It was ensured that there was no contact between the anode and skin in order to avoid skin damage due to high local voltage. The electrodes were then coupled in series to a source of constant current supply (Keithley 2400 Source Meter®, Keithley Instruments Inc., Cleveland, Ohio, USA). A current density of 0.5 mA/cm^2 was applied for 4 h. However, the total duration of the permeation study was 24 h and sampling was done at 0 h, 1 h, 2 h, 3 h, 4 h, 5 h, 6 h, 8 h, 22 h and 24 h.
This study was repeated keeping all the parameters same except that no current was applied (n=4). This group served as the passive control for comparison of the iontophoretic delivery of PAL-353 across human skin. Also, in a separate study, for these two groups, after 4 h, the formulations were removed and current was stopped in the iontophoresis group. Skin resistance was then measured using the procedure explained in section 2.2.3. Results have been presented as mean±SE.
Lag time was calculated as the x-intercept of the extrapolated linear portion of the permeation profiles (cumulative drug permeated/cm^2 plotted against the time). […]

In series [2] the test system is DAT. The series can be described thus: Release activity of phenethylamine analogs, DAT. It counts as biochemical. The settings on record: ratio of EC50 values.
The target in another series is SERT (Rattus norvegicus, UniProt P31652). The series can be described thus: Release activity of phenethylamine analogs, SERT. It is filed as biochemical.
Sequence of SERT (P31652 whole entry): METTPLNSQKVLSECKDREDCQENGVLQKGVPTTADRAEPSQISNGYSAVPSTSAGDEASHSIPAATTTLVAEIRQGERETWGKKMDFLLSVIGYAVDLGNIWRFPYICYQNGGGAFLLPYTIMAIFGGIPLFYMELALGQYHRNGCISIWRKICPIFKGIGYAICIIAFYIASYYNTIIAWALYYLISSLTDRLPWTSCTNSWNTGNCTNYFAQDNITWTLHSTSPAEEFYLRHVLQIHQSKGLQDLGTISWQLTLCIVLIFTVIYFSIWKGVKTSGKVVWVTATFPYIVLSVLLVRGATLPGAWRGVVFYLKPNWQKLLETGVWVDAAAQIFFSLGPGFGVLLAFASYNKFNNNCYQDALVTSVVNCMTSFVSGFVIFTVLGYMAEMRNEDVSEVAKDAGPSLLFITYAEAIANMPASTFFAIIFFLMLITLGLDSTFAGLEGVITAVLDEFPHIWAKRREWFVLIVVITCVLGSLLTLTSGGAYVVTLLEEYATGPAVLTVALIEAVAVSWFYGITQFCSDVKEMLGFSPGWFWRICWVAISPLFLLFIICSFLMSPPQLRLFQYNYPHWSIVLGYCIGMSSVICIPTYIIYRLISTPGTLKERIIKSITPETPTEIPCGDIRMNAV
A further series concerns NET. The series can be described thus: Release activity of phenethylamine analogs, NET. It is filed as biochemical. The settings on record: ratio of EC50 values.
The target of series [3] is DAT (Rattus norvegicus, UniProt P23977). Put plainly: Release activity of phenethylamine analogs, DAT. It counts as biochemical.
Sequence of DAT (Rattus norvegicus, UniProt P23977) (P23977 whole entry): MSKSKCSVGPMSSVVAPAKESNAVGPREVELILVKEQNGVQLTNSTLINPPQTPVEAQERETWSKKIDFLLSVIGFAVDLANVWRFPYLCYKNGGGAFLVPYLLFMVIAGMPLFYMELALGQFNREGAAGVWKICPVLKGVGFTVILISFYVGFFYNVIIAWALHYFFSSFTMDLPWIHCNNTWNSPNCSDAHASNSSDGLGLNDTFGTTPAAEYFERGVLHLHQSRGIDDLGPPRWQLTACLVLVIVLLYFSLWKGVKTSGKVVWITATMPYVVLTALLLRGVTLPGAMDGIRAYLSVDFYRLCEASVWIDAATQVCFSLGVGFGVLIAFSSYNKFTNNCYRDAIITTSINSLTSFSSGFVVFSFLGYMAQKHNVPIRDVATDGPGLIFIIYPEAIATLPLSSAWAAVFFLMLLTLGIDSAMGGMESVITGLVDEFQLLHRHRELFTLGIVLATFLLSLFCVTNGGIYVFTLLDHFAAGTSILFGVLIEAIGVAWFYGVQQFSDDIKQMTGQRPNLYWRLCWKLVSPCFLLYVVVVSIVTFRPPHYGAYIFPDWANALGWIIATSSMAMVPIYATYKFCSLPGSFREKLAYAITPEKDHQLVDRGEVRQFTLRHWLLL
The subject of a further series is EPIDERM. The series can be described thus: Skin irritation potential of formulations, EPIDERM 3 dimensional model. The settings on record: two formulations reaching therapeutic flux. The procedure:
The skin irritation potential of our formulations were tested using EPIDERM™, which is a 3 dimensional model used to assess skin irritation.

The conditions of series [4]: www.chemspider.com; cited from earlier work.
The mark [5] stands for this setting: 100 mg of 2% HPC gel containing 10 mg of drug, 24 h.

Consider `c1ccc(CC2CCNCC2)cc1` [4-benzylpiperidine, 4-Benzylpiperidine], for which, in series [1] (setting [5]), the “average amount permeated across human dermatomed skin” value worked out at 1824±425 μg/cm^2 and the “share of drug permeated across human dermatomed skin” value is reported as “about 18%”. In addition, the “average amount permeated across dermatomed human skin” value in series [1] (100 μL of 1 mg/ml in PG, passive, 24 h) is reported as 33±8 μg/cm^2. For the same compound, in series [1] (100 μL of 10 mg/ml in PG, passive, 24 h), the “average amount permeated across dermatomed human skin” value is 288±71 μg/cm^2.
One may read the EC50 as the concentration giving half of the maximal effect. As for `CC(N)Cc1ccc(Cl)cc1` (centres unmarked) [PAL-24], the SERT/DA in the series with DAT [2] came to 0.3. This compound also had an EC50 on SERT of 21.5 nM. The SERT/NET in the series with NET was 0.9.
In the same order, the values of `COc1cccc(CC(C)N)c1` (centres unmarked) [PAL-161] are 3.2, 328 nM and 5.7.
In the same order, the values of `COc1ccc(CC(C)N)cc1` (centres unmarked) [PAL-162] are 0.1, 63.3 nM and 0.4.
The like results for `CC(N)Cc1ccc(F)cc1` (centres unmarked) [PAL-303] were, in that order, 18.2, 939 nM and 33.5.
Consider `CC(N)Cc1cccc(Cl)c1` (centres unmarked) [PAL-304], for which the values for the EC50 on DAT [3] and at SERT (read-out: EC50 SERT release) were 11.8 nM and 120 nM, respectively. Moreover, the SERT/DA with DAT [2] was found to be 10.2. For the same compound, the SERT/NET in the series with NET is listed as 12.8.
`CC(N)Cc1ccccc1C(F)(F)F` (centres unmarked) [PAL-307]: the EC50 on SERT was > 10000 nM.
`CC(N)Cc1ccc(OC(F)(F)F)cc1` (centres unmarked) [PAL-309]: the SERT/DA in the series on DAT [2] was 0.0. Besides, the EC50 at SERT stood at 82.2 nM. Moreover, the SERT/NET in the series on NET was found to be 0.2.
In the same order, the values of `Cc1ccc(CC(C)N)cc1` (centres unmarked) [PAL-313] are 1.2, 53.4 nM and 2.4.
On to `Cc1cccc(CC(C)N)c1` (centres unmarked) [PAL-314], for which, in the series on DAT [2], the SERT/DA was 6.5. Moreover, the half-maximal effective concentration (EC50) on SERT worked out at 218 nM. For the same compound, the SERT/NET in the series on NET was 11.9.
In the case of `Cc1ccccc1CC(C)N` (centres unmarked) [PAL-315], in the series on DAT [2], the SERT/DA came to 7.7. Further, the EC50 at SERT stood at 973 nM. Moreover, the SERT/NET in the series on NET is recorded as 26.3.
On SERT, `CC(N)Cc1ccc(C(C)C)cc1` (centres unmarked) [PAL-334] showed an EC50 of 79.2 nM.
`CCc1ccc(CC(C)N)cc1` (centres unmarked) [PAL-335]: the SERT/DA in the series with DAT [2] came to 0.1. Besides, the response at SERT was half-maximal at 36.1 nM (EC50). In the series with NET, the SERT/NET was 0.3.
Regarding `CC(N)Cc1cccc(F)c1` (centres unmarked) [PAL-353, 3-fluoroamphetamine], in the series with DAT [2], the SERT/DA amounted to 80. Besides, the “predicted skin irritation of formulations reaching therapeutic flux” value in the series on EPIDERM is on record as “irritant”. Moreover, the EC50 at SERT was 1940 nM. For the same compound, the “passive permeation over 24 h” value in series [1] (10 mg/ml in 10 mM PBS, no current) is reported as 3.94±0.53 μg/cm^2. Further, the “flux enhancement compared to PG alone” value in series [1] (20 mg/mL, 5% w/w oleic acid, not significant) is recorded as ~40%. Further, the “flux as percent of the control group” value was 389% in series [1] (20 mg/mL, 5% w/w oleyl alcohol in PG) and 370% in series [1] (20 mg/mL, 10% w/w oleyl alcohol in PG). Further, the “increase of cumulative drug permeation by iontophoresis versus passive” value in series [1] (PBS, 24 h period) was 548 fold. In addition, in series [1] (PG, 24 h), the “enhancement of skin permeation by ablative laser versus passive” value came out at 508 times. Also, the lag time result in series [1] (anodal iontophoresis, x-intercept of linear portion of permeation profile) was “around 3.5 h”. For the same compound, the flux in series [1] (5% oleic acid in PG) is 109.8±17.94 μg/cm^2/h; in series [1] (10% oleyl alcohol in PG), 292.0±31.70 μg/cm^2/h. Also, the “flux with 10% lauric acid versus propylene glycol alone” value is recorded as “did not show significant difference” in series [1] (10% w/w lauric acid in PG, listed as 3-FA base) and “did not impact the flux at all” in series [1] (10% w/w lauric acid in PG, listed as 3-flouroamphetamine). For the same compound, in series [1] (passive), the “calculated passive flux over 24 hours” value is on record as 3784.62±173.52 μg/cm^2. Further, the “percent permeated through the skin within 24 hours” value in series [1] (20 mg/mL in PG, passive) was 41.4±1.18%; in series [1] (40 mg/mL in PG, passive), 74.45±3.43%. In series [1] (hydrochloride in PG, 24 h), the “enhancement by maltose microneedles versus control” value worked out at 7 fold. Further, in series [1] (hydrochloride, solution in PG), the “permeation after 24 h, skin pre-treated with maltose microneedles” value was 7.35±4.87 μg/cm^2. Moreover, the “passive permeation after 24 h” value in series [1] (hydrochloride, solution in propylene glycol (control)) came out at 1.03±0.17 μg/cm^2. The “passive permeation in PBS compared to PG” value in series [1] (passive) is recorded as “approximately four”. In addition, in series [1] (salt form (hydrochloride), 10 mg/ml in PBS, 0.5 mA/cm^2 for 4 h, 24 h), the “permeation over 24 hours with anodal iontophoresis” value is given as 2159.43±301.14 μg/cm^2. Besides, in series [1] (solution in PG, P.L.E.A.S.E. laser, 24 h), the “permeation after skin microporation by ablative laser” value is recorded as 523.24±86.79 μg/cm^2. For the same compound, in the series on NET, the SERT/NET is 120.
Take `CC(N)Cc1cccc(C(F)(F)F)c1` (centres unmarked) [PAL-677]: the SERT/DA in the series on DAT [2] was found to be 0.1. Also, at SERT, the response was half-maximal at 104 nM (EC50). The SERT/NET in the series on NET is 0.6.
The like results for `CCc1cccc(CC(C)N)c1` (centres unmarked) [PAL-1386] were, in that order, 1.3, 160 nM and 1.4.
Usually log P stands for the decadic logarithm of the partition coefficient of the neutral form, usually between octanol and water. As to `C[C@H]1[C@H](c2ccccc2)OCCN1C` [phendimetrazine], the “log P” value in series [4] was 2.17.
Turning to `CC1NCCOC1c1ccccc1` (centres unmarked) [phenmetrazine, Phenmetrazine, reference compound], in the series on EPIDERM, the “predicted skin irritation of formulations reaching therapeutic flux” value is on record as “irritant”. In addition, the “flux increase compared to group without enhancer” value in series [1] (40 mg/mL, 5% w/w oleyl alcohol in PG) is given as ~10 folds. Besides, the “efficiency of oleyl alcohol as permeation enhancer over oleic acid” value in series [1] (40 mg/mL, both enhancers at 5% w/w) was determined as 53.4%. The “flux enhancement by oleyl alcohol compared to lauric acid” value in series [1] (40 mg/mL, irrespective of oleyl alcohol concentration) was ~240%. Moreover, the “flux enhancement compared to propylene glycol only group” value in series [1] (5% w/w oleic acid in PG) was 7.6 fold; in series [1] (10% w/w lauric acid in PG), 3.4 fold; in series [1] (10% w/w oleyl alcohol in PG), ~10 fold; in series [1] (10% w/w oleyl alcohol in PG, listed as phenmetrazine base), 11.4 fold. Also, the “calculated passive flux over 24 hours” value in series [1] (passive) is 359.05±82.36 μg/cm^2. In addition, the “percent permeated through the skin within 24 hours” value came out at 1.86±0.41% in series [1] (20 mg/mL in PG, passive) and 5.74±1.32% in series [1] (40 mg/mL in PG, passive).
With “Phenmetrazine fumarate [reference compound]”, the “passive permeation over 24 hours” value in series [1] (10 mg/mL in propylene glycol) is “no permeation”.
